Experimental data published in ChEMBL document CHEMBL2057088 (Bioorg Med Chem, 2012).

How the values were obtained:
Rattus norvegicus [1] = assay: Ex-vivo inhibition of DPP4 in po dosed Wistar rat plasma up to 24 hrs by fluorometry; type: functional, organism-based
Rattus norvegicus [2] = organism: Rattus norvegicus; assay: animal or person; conditions: Wistar, Plasma, po, 24 h, read-out: INH

O=C([C@@H]1C[C@H](N2CCN(c3cc(C(F)(F)F)nc4ccccc34)CC2)CN1)N1CCSC1
inhibition (Rattus norvegicus [1]): Dose-dependent effect | inhibition in vivo at 3 µmol/kg (Rattus norvegicus [2]): > 40%
